Test results as given in patent US8658668B2, “PI3 kinase/mTOR dual inhibitor” (Eli Lilly and Company, priority 2011, dated 2014).

How the values were obtained:
[1] = system: LXFL 529 human tumor xenograft cells; assay: Oncotest tumor clonogenic assay, LXFL 529; format: cell-based; settings: colony formation, NSCLC LXFL 529, large cell lung carcinoma, pd, read-out: Absolute IC50
[2] = system: U87MG; assay: Cell proliferation assay (CellTiter-Glo), U87MG; format: cell-based; settings: Homo sapiens, U-87 MG, 96 h
Protocol: (§1) Plate cells in a 96-well plate at 2000 cells/well in 100 μL of cell specific medium (for U87MG use DMEM, 10% FBS, 25 mM 4-(2-hydroxyethyl)-1-piperazineethanesulfonic acid (HEPES), 1.0 mM sodium pyruvate, and 0.1 mM Non Essential Amino Acids (ATCC Cat.#30-2002); for HT1080 use Eagle's MEM, 10% FBS (ATCC Cat.#30-2003); for H1975, A2780, SJSA-1 and 786-O use RPMI 1640, 10% FBS (ATCC Cat.#30-2001); for A204 use McCoy's 5A, 10% FBS (ATCC Cat.#30-2007) except in column 1 use medium only as the blank control. Incubate the plates overnight at 37° C. and 5% CO2. On the next day, prepare compound stocks at 1 mM in DMSO and serially dilute in DMSO in a 96-well round bottom polypropylene plate. Assay compounds at 10 concentrations in duplicate, 4 compounds per plate.
(§2) Transfer 4 μL of the DMSO serial dilutions to a 96 well plate and add 196 μL of culture medium to create a 10× stock for dosing. Gently transfer 11 μL of each dosing stock to the corresponding well of the cell plate resulting in a 0.2% DMSO concentration and a 111 μL final volume. […]
(§3) Prepared the CellTiter-Glo reagent (Promega, Cat: G7571) and add 100 µL to each well after the incubation is complete, homogenize the cells by mixing on an orbital shaker for 2 min and then incubate at RT for 10 min to allow the luminescent signal to stabilize. Record the luminescent raw data with a Wallac Victor V plate reader. […]

[3] = system: GXF 97 human tumor xenograft cells; assay: Oncotest tumor clonogenic assay, GXF 97; format: cell-based; settings: colony formation, Gastric GXF 97, adeno carcinoma, wd, read-out: Absolute IC50
[4] = system: BXF 1228 human tumor xenograft cells; assay: Oncotest tumor clonogenic assay, BXF 1228; format: cell-based; settings: colony formation, Bladder BXF 1228, transitional cell carcinoma, wd, read-out: Absolute IC50
[5] = system: A204; assay: Cell proliferation assay (CellTiter-Glo), A204; format: cell-based; settings: Homo sapiens, A204, 72 h
Protocol: as §1, §2, §3

[6] = system: pT389 p70S6K; assay: In vivo target inhibition in U87MG tumors, pT389 p70S6K; settings: Mus musculus, U-87 MG; for inhibition at 0.5 mg/kg: 0.5 mg/kg oral; for inhibition at 1.5 mg/kg: 1.5 mg/kg oral; for inhibition at 3 mg/kg: 3 mg/kg oral; for inhibition at 6 mg/kg: 6 mg/kg oral; for inhibition at 10 mg/kg: 10 mg/kg oral; for inhibition at 12 mg/kg: 12 mg/kg oral
Protocol: (§4) Implant U87MG human glioblastoma cells (5×10^6) subcutaneously into the flank of athymic nude mice in 0.2 mL of matrigel. Ten days post-implantation, dose mice orally according to a time course, single dose/single time point, or dose response protocol for the determination of TMED50 (threshold minimum effective dose). Flash freeze tumors at harvest and collect blood for the determination of parent compound plasma exposure and the calculation of TMEC50 (threshold minimum effective concentration) in the case of dose response studies. Homogenize tumors in 500 μL of XY Lysis Buffer (10 μg/mL Leupeptin, 10 μg/mL Trypsin-Chymotrypsin Inhibitor, 10 μg/mL Tosyl phenyl-alanyl chloromethyl ketone, 10 μg/mL Aprotinin, 60 mM Beta-Glycerol Phosphate, 1% Triton X100, 25 mM Tris pH 7.5, 2.5 mM Pyrophosphate, 150 mM NaCl, 2 mM p-tosyl-L-arginine methyl ester, 15 mM para-nitrophenyl phosphate, 5 mM benzamidine, 1 mM sodium vanadate, 10 mM sodium fluoride, 50 μg/mL phenyl-methane sulfonyl fluoride, 1 mM 1,4-dithiothreitol (DTT), 15 mM EDTA pH 8.0, 5 mM EGTA pH 8.0, 1 μM Microcystin, 1 μM Okadaic Acid, and 1 Roche Complete protease inhibitor mini-tablet per 10 mL) using RNase Free Pellet Pestle (Kimble-Kontes). Aliquot lysates and either assay immediately or store at −80° C. for later testing. Use the multiplex format of Meso Scale Discovery (Gaithersburg, Md.) ELISA technology and measure in vivo target inhibition of PI3K and mTOR to assess effects on phosphorylation of the threonine 308 site of AKT, a downstream effector of PI3K; phosphorylation on the threonine 389 site of p70 S6K and on the serine 240/244 site of S6RP, downstream effectors of mTORC1; phosphorylation of the serine 473 site of AKT, a downstream effector of mTORC2. Add 20 μg of lysate to carbon electrode containing 96-well plates pre-spotted with the appropriate capture antibodies. Probe the protein of interest using a ruthenium labeled detection antibody. Pass current over the electrode in the presence of read buffer containing the co-reactant TPA, and quantitate and record the light generated by electro-chemiluminescence with the MSD Sector 6000 instrument. Calculate percent inhibitions relative to the vehicle control group and perform ANOVA analysis using the JMP software package for the determination of statistical significance.

[7] = system: pT308 AKT; assay: In vivo target inhibition in U87MG tumors, pT308 AKT; settings: Mus musculus, U-87 MG; for inhibition at 0.5 mg/kg: 0.5 mg/kg oral; for inhibition at 1.5 mg/kg: 1.5 mg/kg oral; for inhibition at 3 mg/kg: 3 mg/kg oral; for inhibition at 6 mg/kg: 6 mg/kg oral; for inhibition at 10 mg/kg: 10 mg/kg oral; for inhibition at 12 mg/kg: 12 mg/kg oral
Protocol: as §4

Question: Which results are given for `CO[C@@H](C)Cn1c(=O)n(C)c2cnc3ccc(-c4cncc(C(C)(C)O)c4)cc3c21` [Example 1, 8-[5-(1-Hydroxy-1-methylethyl)pyridin-3-yl]-1-[(2S)-2-methoxypropyl]-3-methyl-1,3-dihydro-2H-imidazo[4,5-c]quinolin-2-one]?
Answer: IC50 [1]: 0.128 µM; IC50 [2]: 0.074 µM; IC50 [3]: 0.101 µM; IC50 [4]: 0.031 µM; IC50 [5]: 0.097 µM; inhibition at 0.5 mg/kg ([6]; 0.5 hr post dose): 62%; inhibition at 0.5 mg/kg ([6]; 4 hr post dose): 7%; inhibition at 1.5 mg/kg ([6]; 0.5 hr post dose): 84%; inhibition at 1.5 mg/kg ([6]; 4 hr post dose): 38%; inhibition at 3 mg/kg ([6]; 0.25 hr post dose): 77%; inhibition at 3 mg/kg ([6]; 0.5 hr post dose): 89%; inhibition at 3 mg/kg ([6]; 1 hr post dose): 89%; inhibition at 3 mg/kg ([6]; 3 hr post dose): 77%; inhibition at 3 mg/kg ([6]; 4 hr post dose): 64%; inhibition at 6 mg/kg ([6]; 0.25 hr post dose): 88%; inhibition at 6 mg/kg ([6]; 0.5 hr post dose): 91%; inhibition at 6 mg/kg ([6]; 1 hr post dose): 90%; inhibition at 6 mg/kg ([6]; 2 hr post dose): 87%; inhibition at 6 mg/kg ([6]; 4 hr post dose): 68%; inhibition at 6 mg/kg ([6]; 6 hr post dose): 61%; inhibition at 6 mg/kg ([6]; 12 hr post dose): 14%; inhibition at 10 mg/kg ([6]; 0.5 hr post dose): 93%; inhibition at 10 mg/kg ([6]; 1 hr post dose): 92%; inhibition at 10 mg/kg ([6]; 2 hr post dose): 92%; inhibition at 10 mg/kg ([6]; 4 hr post dose): 91%; inhibition at 10 mg/kg ([6]; 8 hr post dose): 55%; inhibition at 12 mg/kg ([6]; 0.5 hr post dose): 92%; inhibition at 12 mg/kg ([6]; 4 hr post dose): 90%; inhibition at 0.5 mg/kg ([7]; 0.5 hr post dose): 23%; inhibition at 0.5 mg/kg ([7]; 4 hr post dose): 1%; inhibition at 1.5 mg/kg ([7]; 0.5 hr post dose): 28%; inhibition at 1.5 mg/kg ([7]; 4 hr post dose): -8%; inhibition at 3 mg/kg ([7]; 0.25 hr post dose): 28%; inhibition at 3 mg/kg ([7]; 0.5 hr post dose): 43%; inhibition at 3 mg/kg ([7]; 1 hr post dose): 7%; inhibition at 3 mg/kg ([7]; 3 hr post dose): 7%; inhibition at 3 mg/kg ([7]; 4 hr post dose): -2%; inhibition at 6 mg/kg ([7]; 0.25 hr post dose): 47%; inhibition at 6 mg/kg ([7]; 0.5 hr post dose): 61%; inhibition at 6 mg/kg ([7]; 1 hr post dose): 41%; inhibition at 6 mg/kg ([7]; 2 hr post dose): 32%; inhibition at 6 mg/kg ([7]; 4 hr post dose): 1%; inhibition at 6 mg/kg ([7]; 6 hr post dose): -4%; inhibition at 6 mg/kg ([7]; 12 hr post dose): -16%; inhibition at 10 mg/kg ([7]; 0.5 hr post dose): 88%; inhibition at 10 mg/kg ([7]; 1 hr post dose): 71%; inhibition at 10 mg/kg ([7]; 2 hr post dose): 53%; inhibition at 10 mg/kg ([7]; 4 hr post dose): 44%; inhibition at 10 mg/kg ([7]; 8 hr post dose): 13%; inhibition at 12 mg/kg ([7]; 0.5 hr post dose): 79%; inhibition at 12 mg/kg ([7]; 4 hr post dose): 43%
